Source: patent US20060293228A1, “Therapeutic compositions and methods using transforming growth factor-beta mimics” (priority 2005, published 2006)
Where a SMILES comes first, the peptide text is derived from it. Where no end group is shown, it is not given here.

Key:
[1] = tested on: Mv-1-Lu mink lung epithelial cells; test: Inhibition of DNA synthesis (3H-thymidine incorporation) of Mv-1-Lu mink lung epithelial cells; assay type: cell-based; conditions: cytomodulin at the same concentration
Method: The effect of TGF-β and cytomodulin were evaluated by determining the rate of [1H]thymidine incorporation into total acid-insoluble DNA and cell number. See generally, Sampath et al., J. Biol. Chem., 267, pp. 20352-20362 (1992). DNA synthesis rates were determined in triplicate cultures after 24 hour treatment with various concentrations (10^-9 M to 10^-6 M) of either TGF-β or cytomodulin (which was synthesized by the Merrifield method) by adding [methyl-3H]thymidine (2 uCi/ml, 80 Ci/mmol) for 6 hours before the termination of the culture. Incorporation was terminated by aspiration of the medium, and after washing three times with phosphate-buffered saline, the trichloroacetic acid (10%)-precipitated radioactive DNA was extracted with 1.0% (w/v) sodium dodecyl sulfate, 0.1 M NaOH and quantitated by liquid scintillation counting. For cell number determination, 1×10^5 cells were plated in flasks in MEM containing 10% FBS, and after 24 hours, the growth medium was replaced with serum-free medium containing various conceptions of TGF-β and cytomodulin. Triplicate cultures were harvested every 24 hours for the duration of 7 days, and the cell number was determined by counting cells released by trypsin digestion in a fixed volume hemacytometer.
The numbers shown at the various concentration are the ratio of the inhibition rate of the peptide being tested over the inhibition rate of cytomodulin (SEQ ID NO: 1) at the same concentration.

NRK-49 F fibroblasts = test: Growth and colony formation by NRK-49 F fibroblasts in soft agar; assay type: cell-based
Method: The original assay for TGF-β, the ability to promote anchorage independent growth of normal fibroblasts is still one of the hallmarks of TGF-β activity. NRK49 F fibroblasts were grown at 37° C. in DEM supplemented with 10% fetal calf serum. […] To this, either 100 nM TGF-β (positive control) or 100 nM cytomodulin was added. NRK49 F fibroblasts (5×10^4 cells/ml) were mixed with 0.3% agar were plated on the bottom of 35 mm culture dishes. Colony formation was observed starting on day 3 of culture.

insect bite = tested on: insect bite; set-up: species or system human; conditions: in vivo
Excerpt: A person reported that they were very allergic to insect bites, which usually made a large red welt, then turned purple and looked like a severe bruise, lasting for about a week.

[2] = tested on: contact dermatitis on both hands; set-up: species or system human; conditions: in vivo
Excerpt: A person had suffered from contact dermatitis on both hands for approximately 5 to 6 years. Signs of dermatitis, such as rash, itching, crustiness, thin skin (steroids) when flexed hand would start bleeding where lines, were apparent over approximately 100 cm^2 of the right and left hands, respectively (all of palm and fingers). The individual applied a lotion comprising cytomodulin (SEQ ID NO: 1) at a concentration of about approximately 0.01% once per day at night. The amount applied was about 0.25 ml per hand. After 3-4 days healing of the dermatitis was apparent. In approximately two weeks the dermatitis was completely healed.

Compound	Inhib by new peptide/Inhib by cytomodulin (3H-thymidine incorporation) ([1]; 1 nM)	Inhib by new peptide/Inhib by cytomodulin (3H-thymidine incorporation) ([1]; 10 nM)	Inhib by new peptide/Inhib by cytomodulin (3H-thymidine incorporation) ([1]; 100 nM)	Inhib by new peptide/Inhib by cytomodulin (3H-thymidine incorporation) ([1]; 1000 nM)	growth and colony formation of NRK-49 F cells in soft agar (in words) (NRK-49 F fibroblasts)	adverse effects (insect bite)	negative effects of application of the lotion [2]
L-I-A-E-A-A (LIAEAA) [SEQ ID NO: 11]	1.16	1.00	1.17	1.85	–	–	–
L-I-A-G-G-E (LIAGGE) [SEQ ID NO: 13]	1.10	1.33	1.45	1.90	–	–	–
LIAPEA [L1]	–	–	–	–	promoted the growth	–	–
CC(C)[C@H](NC(=O)[C@H](CC(N)=O)NC(=O)[C@H](C)N)C(=O)N[C@@H](C)C(=O)N[C@@H](CCC(=O)O)C(=O)N[C@@H](CC(N)=O)C(=O)N[C@@H](C)C(=O)O [cytomodulin, Ala-Asn-Val-Ala-Glu-Asn-Ala] (H-ANVAENA-OH)	–	–	–	–	–	no adverse effects	No negative effects
LIAEAK [L2]	–	–	–	–	promoted the growth	–	–
L-I-A-N-A-K (LIANAK) [SEQ ID NO: 10]	1.70	2.00	1.43	3.05	–	–	–
L-I-A-K-G-K (LIAKGK) [SEQ ID NO: 16]	–	0.65	0.67	–	–	–	–
L-I-A-G-E-G (LIAGEG) [SEQ ID NO: 14]	0.66	0.85	1.41	1.88	–	–	–
L-I-A-Q-A-K (LIAQAK) [SEQ ID NO: 12]	0.90	1.10	0.80	1.56	–	–	–
L-I-A-D-A-K (LIADAK) [SEQ ID NO: 9]	0.45	0.87	1.14	1.25	–	–	–
A-N-V-A-E-K (ANVAEK) [SEQ ID NO: 15]	–	0.80	1.00	–	–	–	–
